In PubChem BioAssay (NCI) one finds TGI and GI50 data, which are given here for 24 compounds.

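These data come from cells grown in 96-well plates and exposed to compound for 48 hours at five concentrations. GI50 is the concentration that inhibits growth by half. TGI: concentration producing complete growth inhibition.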

Among the test systems are HCC-2998 colon; HOP-62 NSCLC; HOP-92 NSCLC; HT29 colon; NCI-H23 lung; SF-268 CNS; SK-OV-3 ovarian; SW-620 colon; RPMI-8226 leukemia.
Common to all, as to assay: NCI anticancer screen, dose series, 48 h

With `O=C(CCCC(=O)Nc1ccc(Cl)cc1Cl)CC(=O)c1ccc2ccccc2c1`, the TGI in the assay with HCC-2998 colon, with HOP-62 NSCLC, in the assay with HOP-92 NSCLC, in the assay with HT29 colon, with NCI-H23 lung and in the assay with SF-268 CNS was > 100 µM throughout. The TGI in the assay with SK-OV-3 ovarian and in the assay on SW-620 colon was > 100 µM throughout.
As for `CCCCCCCCOCC(COC(=O)CCCCCCC)OC(=O)CCCCCCC` (stereo unspecified), the TGI with HCC-2998 colon, in the assay with HOP-62 NSCLC, with HOP-92 NSCLC, with HT29 colon, in the assay on NCI-H23 lung and in the assay on RPMI-8226 leukemia was > 100 µM throughout. Further, the TGI in the assay on SF-268 CNS, in the assay on SK-OV-3 ovarian and in the assay with SW-620 colon was > 100 µM each time.
In the case of `CC12OC(=O)C(C#N)C1(C)C1C(=O)CCCC12` (stereo unspecified), the TGI in the assay with NCI-H23 lung, with RPMI-8226 leukemia, in the assay with SF-268 CNS, in the assay on SK-OV-3 ovarian and in the assay on SW-620 colon was > 100 µM in each case.
`CCOC(=O)/C(=C/c1ccccn1)C(=O)c1ccccc1`: the TGI came out at 31.3 µM with HCC-2998 colon; 33 µM in the assay on HOP-62 NSCLC; 21.1 µM with HOP-92 NSCLC; 30.4 µM with HT29 colon; 30.5 µM with NCI-H23 lung; 13.2 µM in the assay on RPMI-8226 leukemia. For the same compound, the TGI in the assay with SF-268 CNS is 44 µM; in the assay with SK-OV-3 ovarian, 36.7 µM; in the assay on SW-620 colon it was 32.6 µM.
With `Cc1ccccc1C(CCCO)C(=O)O` (stereo unspecified), the TGI with HOP-62 NSCLC, in the assay with HOP-92 NSCLC, in the assay on HT29 colon, in the assay with NCI-H23 lung, with RPMI-8226 leukemia and in the assay on SF-268 CNS was > 100 µM throughout. For the same compound, the TGI with SK-OV-3 ovarian and in the assay with SW-620 colon was > 100 µM in each case.
On to `CCc1cccc(CC)c1NC(=O)/C(Cl)=C(/Cl)C(=O)O`, for which the TGI with HCC-2998 colon is > 75.9 µM; in the assay with HOP-62 NSCLC, > 100 µM; with HOP-92 NSCLC, 41.4 µM; in the assay on HT29 colon, 53.7 µM; with NCI-H23 lung, 66.5 µM; with RPMI-8226 leukemia it was > 79.4 µM. The TGI in the assay on SF-268 CNS was 64.1 µM; with SK-OV-3 ovarian, > 100 µM; with SW-620 colon it was 46.8 µM.
For `NC1=NC(Cn2nc(-c3ccccc3)c3ccccc3c2=O)=NNC(=O)N1`, the TGI with HCC-2998 colon, in the assay on HOP-62 NSCLC, in the assay with HOP-92 NSCLC, with HT29 colon, in the assay with NCI-H23 lung and with RPMI-8226 leukemia was > 100 µM throughout. The TGI in the assay with SF-268 CNS, in the assay on SK-OV-3 ovarian and in the assay with SW-620 colon was > 100 µM throughout.
On to `Nc1nc(=S)c2c(ncn2CCO)[nH]1`, for which the TGI in the assay on HCC-2998 colon, in the assay with HOP-62 NSCLC, with HOP-92 NSCLC, with HT29 colon, in the assay with RPMI-8226 leukemia and in the assay on SF-268 CNS was > 100 µM in each case. The TGI with SK-OV-3 ovarian and in the assay with SW-620 colon was > 100 µM each time.
Take `CC(=O)Nc1ccc(C2CC(c3ccc([N+](=O)[O-])cc3)=Nc3ccccc3S2=O)cc1` (stereo unspecified): the TGI in the assay with HCC-2998 colon was 30.5 µM; with HOP-62 NSCLC, 49.8 µM; with HT29 colon it was 59.1 µM; with NCI-H23 lung, 53.9 µM; with RPMI-8226 leukemia, 20.5 µM; in the assay with SF-268 CNS, > 100 µM. Also, the TGI is 70.5 µM in the assay on SK-OV-3 ovarian and 62.4 µM in the assay with SW-620 colon.
For the compound `COc1ccc(-c2c(C3=NCCCN3)nnn2-c2ccccc2)cc1`, the TGI in the assay with HCC-2998 colon, with HOP-62 NSCLC, with HOP-92 NSCLC, with HT29 colon, with NCI-H23 lung and in the assay with RPMI-8226 leukemia was > 100 µM each time. In addition, the TGI in the assay on SF-268 CNS, with SK-OV-3 ovarian and with SW-620 colon was > 100 µM each time.
On to `CCCCCC/C=C\CCCCCCCCC(=O)c1cccc(OC)c1OC`, for which the TGI in the assay with HCC-2998 colon, with HOP-62 NSCLC, with HT29 colon, with NCI-H23 lung, with RPMI-8226 leukemia and in the assay on SF-268 CNS was > 100 µM in each case. The TGI with SK-OV-3 ovarian and in the assay with SW-620 colon was > 100 µM each time.
With `CCCC(=O)CC(C)C(=O)C(=O)NC12CC3CC(CC(C3)C1)C2` (stereo unspecified), the TGI in the assay on HCC-2998 colon, in the assay on HOP-62 NSCLC, in the assay with HOP-92 NSCLC, with HT29 colon, with NCI-H23 lung and with RPMI-8226 leukemia was > 100 µM each time. The TGI with SF-268 CNS and in the assay with SW-620 colon was > 100 µM each time.
On to `COc1cc(/C=C/c2csnn2)cc(OC)c1OC`, for which the TGI in the assay with HCC-2998 colon, in the assay with HOP-62 NSCLC, in the assay with HOP-92 NSCLC, with HT29 colon, in the assay on NCI-H23 lung and in the assay with RPMI-8226 leukemia was > 100 µM each time. The TGI with SF-268 CNS, in the assay on SK-OV-3 ovarian and in the assay on SW-620 colon was > 100 µM each time.
Regarding `C[C@H](C(=O)O)C(=O)NC(=O)N(Cc1ccccc1)N=O`, the TGI in the assay on HCC-2998 colon, in the assay on HOP-62 NSCLC, in the assay with HT29 colon, with RPMI-8226 leukemia, with SF-268 CNS and in the assay on SK-OV-3 ovarian was > 100 µM in each case. Besides, the TGI in the assay on SW-620 colon is > 100 µM.
On to `COC(=O)C1=C(C(=O)OC)C2(c3ccccc3)OC1(c1ccccc1)c1cc3ccccc3cc12`, for which the TGI amounted to 3.7 µM in the assay with HCC-2998 colon; 27.1 µM in the assay with HOP-62 NSCLC; 2.44 µM with HOP-92 NSCLC; 3.49 µM in the assay with HT29 colon; 4.48 µM with NCI-H23 lung; 4.19 µM in the assay with RPMI-8226 leukemia. In addition, the TGI in the assay on SF-268 CNS is 3.77 µM; with SK-OV-3 ovarian, 24.4 µM; with SW-620 colon it was 3.51 µM.
As for `OC(c1ccccc1Br)(c1ccccc1Br)C(F)(F)F`, the TGI in the assay with HCC-2998 colon is 6.58 µM; with HOP-62 NSCLC, 52.8 µM; in the assay with HT29 colon it was 38.3 µM; in the assay with NCI-H23 lung, 78.3 µM; in the assay on SF-268 CNS it was 43 µM; with SK-OV-3 ovarian, > 100 µM. The compound further showed a TGI in the assay on SW-620 colon of 36.2 µM.
In the case of `COC(=O)C(C(=O)C(=O)Nc1c(Cl)cc([N+](=O)[O-])cc1Cl)c1csc(-n2nc(C3=CCCCC3)cc2-c2ccccc2)n1` (stereo unspecified), the TGI was > 100 µM in the assay with HCC-2998 colon; > 100 µM in the assay with HOP-62 NSCLC; 77.7 µM in the assay on HOP-92 NSCLC; > 100 µM with HT29 colon; > 100 µM with RPMI-8226 leukemia; > 100 µM in the assay with SF-268 CNS. The TGI with SK-OV-3 ovarian and in the assay on SW-620 colon was > 100 µM throughout.
Consider `O=C1N[C@@H]2CCCC[C@@H]2C12CCCCC2`, for which the TGI in the assay on HCC-2998 colon, in the assay on HOP-62 NSCLC, with HT29 colon, in the assay with NCI-H23 lung, in the assay with RPMI-8226 leukemia and in the assay with SF-268 CNS was > 100 µM each time. Further, the TGI in the assay with SK-OV-3 ovarian and in the assay on SW-620 colon was > 100 µM throughout.
Regarding `CCOC(=O)C1(C)CCC(C(C(=O)O)C(=O)O)CC1=O` (stereo unspecified), the TGI in the assay on HCC-2998 colon, with HOP-62 NSCLC, in the assay on HOP-92 NSCLC, in the assay on HT29 colon, in the assay with RPMI-8226 leukemia and in the assay with SF-268 CNS was > 100 µM in each case. For the same compound, the TGI with SK-OV-3 ovarian and with SW-620 colon was > 100 µM in each case.
Consider `COc1ccc2ccccc2c1C1=NC(C)(C)CO1`, for which the TGI with HOP-62 NSCLC, in the assay on HOP-92 NSCLC, in the assay on HT29 colon, in the assay with NCI-H23 lung, with RPMI-8226 leukemia and with SF-268 CNS was > 100 µM each time. Further, the TGI with SK-OV-3 ovarian and in the assay with SW-620 colon was > 100 µM each time.
For the compound `CC(=O)[CH-]C(=O)c1ccccc1.[C-]#[O+].[C-]#[O+].[Ir]`, the GI50 was > 100 µM in the assay on HCC-2998 colon; > 10 µM with HT29 colon; > 100 µM in the assay on NCI-H23 lung; > 10 µM with RPMI-8226 leukemia; > 100 µM in the assay with SK-OV-3 ovarian; > 100 µM with SW-620 colon. The TGI in the assay on HCC-2998 colon was > 100 µM; with HT29 colon, > 10 µM; in the assay with NCI-H23 lung, > 100 µM; in the assay with RPMI-8226 leukemia it was > 10 µM; in the assay with SK-OV-3 ovarian it was > 100 µM; in the assay on SW-620 colon it was > 100 µM.
Regarding `O=C(NCCc1ccccc1)C1C(=O)C(=O)N(CCc2ccccc2)C1=O` (stereo unspecified), the TGI with HOP-92 NSCLC, in the assay with HT29 colon, in the assay with NCI-H23 lung, with RPMI-8226 leukemia, in the assay with SF-268 CNS and in the assay on SK-OV-3 ovarian was > 100 µM throughout. Besides, in the assay on SW-620 colon, the TGI is > 100 µM.
Turning to `c1ccc(C(c2ccccc2)c2ccccn2)cc1`, the TGI in the assay on HCC-2998 colon, in the assay on HOP-62 NSCLC, with HT29 colon, with NCI-H23 lung, with RPMI-8226 leukemia and with SF-268 CNS was > 100 µM throughout. The TGI with SK-OV-3 ovarian and with SW-620 colon was > 100 µM in each case.
Consider `O=C(c1ccccc1)[C@H]1Nc2ccc(Cl)cc2[C@H]2CCC[C@@H]12`, for which the TGI in the assay on HCC-2998 colon was > 100 µM; in the assay on HOP-62 NSCLC it was > 100 µM; with HT29 colon, 62.2 µM; in the assay on NCI-H23 lung it was 78 µM; with RPMI-8226 leukemia, 57.1 µM; with SF-268 CNS, > 100 µM. Moreover, the TGI in the assay with SW-620 colon was > 100 µM.
